Assay results as given in US20120232062A1, “AZAINDAZOLES TO TREAT FLAVIVIRIDAE VIRUS INFECTION” (EIGER BIOPHARMACEUTICALS, INC., priority 2009, published 2012).

What follows are compounds tested on HCV genotype 1b (assay: HCV 1b replicon luciferase assay). Conditions: Hepatitis C virus, Huh-7, 48 h, Table 1; Huh7 HCV 1b replicon, luciferase reporter, 48 hours; read-out: 1b EC50.
Type: cell-based
Source text: A suitable 1b HCV RNA replicon assay uses the Huh7 cell line which contains an HCV 1b RNA replicon with a stable luciferase (LUC) reporter. This construct contains modifications that make the cell line more robust and provides stable LUC expression for antiviral screening. The LUC reporter is used as an indirect measure of HCV replication. The activity of the LUC reporter is directly proportional to HCV RNA levels and positive control antiviral compounds behave comparably using LUC endpoints. […]
Fresh growth medium is prepared just before use. The container used in the procedure is a 10 cm diameter culture dish. HCV replicon reporter cell lines are used. Prepare complete medium: add FBS and appropriate additives as described in “Culture Media”, below. Pre-warm the medium in a 37° C. thermostat water bath. Remove the dish from a 37° C. CO2 incubator. Check the cell name and complete medium and passage number marked on the dish. Aspirate the medium carefully and add 1 ml PBS to rinse the cells. Remove and discard the solution and add 1 ml of 0.25% Trypsin/0.02% EDTA. Rinse the cells with the added Trypsin/EDTA to ensure all the cells have been rinsed. Remove the Trypsin/EDTA with a vacuum pump and incubate at 37° C. for 3-5 minutes. Examine the cell morphology under an inverted microscope to confirm that a single cell suspension is clearly visible. Add 3 ml of complete medium to the dish and suspend the cell by gentle pipetting. Count the cell numbers with a hematometer. Adjust cell density to 100 k/ml by adding appropriate volume of the complete medium. Add 100 μl of cell suspension to each well of a 96-well white plate; the cell density is thus 10 k per well. Mark the plate with cell name, passage number, seeding density, date and the name of the operator. Place the 96-well assay plate in 37° C. 5% CO2 incubator for 24 hours.
Compounds are prepared or provided at 25 mM in 100% DMSO. This is the compound stock solution. The dilution procedure should be performed in a cell culture hood. Dispense the stock solution into the second column of a 96-well plate. Prepare 9-step (10 concentrations total), 5-fold serial dilutions by transferring 10 μA of the compound into the next well containing 40 μA of DMSO. Repeat for all compounds. Aspirate 2 μl of the above compound solution from each well and add into 198 μl complete media using a 12-channel pipetter to obtain the 10-fold concentration compound solution with 1% DMSO, mix well.
Remove the 96-well assay plate from the 37° C./5% CO2 incubator, examine the cell morphology under an inverted microscope. In a cell culture hood, add 10 μl of the 10× concentration compounds solution into each well on the 96-well assay plate. All compound's dose responses are done in duplicate. The starting final concentration of the compounds is 25 μM, and DMSO final concentration 0.1%. Mark the plate with compound code(s) and concentrations. Place the 96-well assay plate into CO2 incubator for 48 hours. Add 30 μl of Stead-Glo Luciferase System (Promega) reagent to each well and mix by gentle shaking on a plate shaker for 5 minutes to allow throughout cell lysis. Measure the luminescence with Envision (Perkin Elmer) with an integration time of 2 seconds. Record and analyze the data.
The cell culture media is DMEM complete: DMEM (Life Technologies #41965-039) supplemented with 10% FCS, 2 mM Glutamin (Life Technologies #25030-024), Penicillin (100 IU/ml)/Streptomycin (100 μg/ml) (Life Technologies #15140-114) and 1× nonessential amino acids (Life Technologies #11140-035). G418 (“Geneticin”, Life Technologies): concentrations are given as weight per volume of the original substance. Specific activity of a typical batch is ca. 700 μg/mg as stated by the manufacturer. […] Therefore each new batch of G418 should be tested individually e.g. in an electroporation experiment using different selection conditions (0.2-1 mg/ml).

Row | Structure (SMILES) | EC50
1 | CCC(CC)Oc1ccc2c(NC(=O)[C@H]3CC[C@@H](N)CC3)nn(C)c2n1 [compound 951] | 7.8 µM
2 | CCC(CC)Oc1ccc2c(NC(=O)CC3CCCNC3)nn(C)c2n1 (stereo not shown) [compound 952] | 10 µM
3 | CCC(CC)Oc1ccc2c(NC(=O)CC3CCNCC3)nn(C)c2n1 [compound 953] | 6.4 µM
4 | Cn1nc(C(=O)NC2CCNCC2)c2ccc(Oc3ccccc3)nc21 [compound 955] | 3.4 µM
5 | CCC(CC)Oc1ccc2c(NC(=O)C3CCNCC3)nn(C)c2n1 [compound 962] | 4.4 µM
6 | Cn1nc(C(=O)NC2CCNCC2)c2ccc(OCc3ccccc3-c3ccccc3)nc21 [compound 969] | 1.3 µM
7 | Cn1nc(C(=O)NC2CCN(Cc3cccc(-c4ccccc4)c3)CC2)c2ccc(OCc3cccc(-c4ccccc4)c3)nc21 [compound 970] | 8.9 µM
8 | Cn1nc(C(=O)NC2CCN(Cc3ccc(-c4ccccc4)cc3)CC2)c2ccc(O)nc21 [compound 972] | 3.7 µM
9 | Cn1nc(C(=O)NC2CCN(Cc3ccc(-c4ccccc4)cc3)CC2)c2ccc(OCc3ccc(-c4ccccc4)cc3)nc21 [compound 973] | 5.4 µM
10 | Cn1nc(C(=O)NC2CCNCC2)c2ccc(OCc3ccc(-c4ccccc4)cc3)nc21 [compound 974] | 4.5 µM
11 | Cn1nc(CNC2CCNCC2)c2ccc(N3CCCCCC3)nc21 [compound 976] | 4.7 µM
12 | Cn1nc(C(=O)N[C@@H]2C[C@H]3CC[C@@H](C2)N3)c2ccc(N3CCCCCC3)nc21 [compound 979] | 4.9 µM
13 | Cn1nc(C(=O)N[C@H]2C[C@H]3CC[C@@H](C2)N3)c2ccc(N3CCCCCC3)nc21 [compound 984] | 2.2 µM
14 | Cn1nc(COCC2CCNCC2)c2ccc(N3CCCCCC3)nc21 [compound 985] | 7.6 µM
15 | Cn1nc(COCC2CCCNC2)c2ccc(N3CCCCCC3)nc21 (stereo not shown) [compound 986] | 7.9 µM
16 | O=C(NC1CCNCC1)c1nn(S(=O)(=O)C2CCCCC2)c2nc(N3CCCCCC3)ccc12 [compound 988] | 5.4 µM
17 | Cn1nc(C(=O)NC2CCNCC2)c2cc(NC3CCCCC3)cnc21 [compound 991] | 9 µM
18 | Cn1nc(C(=O)NC2CCNCC2)c2ccc(N3CCCC(c4ccccc4)CC3)nc21 (stereo not shown) [compound 1026] | 1.6 µM
19 | Cn1nc(C(=O)NC2CCN(C(=O)C3CCCCC3)CC2)c2ccc(N3CCCCCC3)nc21 [compound 1030] | 4.8 µM

Row | Structure (SMILES) | EC50
20 | Cn1nc(C(=O)NC2CCN(CCCC3CCCCC3)CC2)c2ccc(N3CCCCCC3)nc21 [compound 1031] | 0.69 µM
21 | Cn1nc(NC(=O)C2CCNCC2)c2ccc(N3CCCCCC3)nc21 [compound 1035] | 5.7 µM
22 | Cn1nc(NC(=O)C2CCCNC2)c2ccc(N3CCCCCC3)nc21 (stereo not shown) [compound 1036] | 8.7 µM
23 | Cn1nc(C(=O)NC2CCN(Cc3ccccc3Cl)CC2)c2ccc(N3CCCCCC3)nc21 [compound 1037] | 3.4 µM
24 | Cn1nc(C(=O)NC2CCN(Cc3cccc(Cl)c3)CC2)c2ccc(N3CCCCCC3)nc21 [compound 1038] | 3.4 µM
25 | Cn1nc(C(=O)NC2CCN(C3CCCC3)CC2)c2ccc(N3CCCCCC3)nc21 [compound 1040] | 2.8 µM
26 | Cn1nc(C(=O)NC2CCN(CCCN3CCCCC3)CC2)c2ccc(N3CCCCCC3)nc21 [compound 1041] | 1.1 µM
27 | Cn1nc(C(=O)NC2CCNCC2)c2ccc(NCc3ccccc3)nc21 [compound 1042] | 3.8 µM
28 | Cn1nc(C(=O)NC2CCN(Cc3ccncc3)CC2)c2ccc(N3CCCCCC3)nc21 [compound 1043] | 1.2 µM
29 | COc1ccc(CN2CCC(NC(=O)c3nn(C)c4nc(N5CCCCCC5)ccc34)CC2)cc1 [compound 1044] | 0.76 µM
30 | CC(C)c1ccc(CN2CCC(NC(=O)c3nn(C)c4nc(N5CCCCCC5)ccc34)CC2)cc1 [compound 1046] | 1.4 µM
31 | Cn1nc(C(=O)NC2CCNCC2)c2ccc(N3CCCN(Cc4ccccc4)CC3)nc21 [compound 1049] | 6.1 µM
32 | Cn1nc(C(=O)NC2CCNCC2)c2ccc(OCc3ccccc3)nc21 [compound 1051] | 2.9 µM
33 | Cn1nc(-c2c[nH]c(CC3CCNCC3)n2)c2ccc(N3CCCCCC3)nc21 [compound 1054] | 8.6 µM
34 | Cn1nc(C(=O)NC2CCNCC2)c2ccc(OCc3ccccc3Br)nc21 [compound 1065] | 3.3 µM
35 | Cn1nc(C(=O)NC2CCNCC2)c2ccc(OCc3ccccc3-c3nc4ccccc4s3)nc21 [compound 1066] | 2.5 µM
36 | Cn1nc(-c2ncc(-c3ccc(Br)cc3)[nH]2)c2ccc(N3CCCCCC3)nc21 [compound 1069] | 8.3 µM
37 | Cn1nc(C(=O)NC2CCN(CC3CCCCC3)CC2)c2ccc(NC3CCCCCC3)nc21 [compound 1073] | 0.67 µM
38 | CC(C)CN(C)c1ccc2c(C(=O)NC3CCN(CC4CCCCC4)CC3)nn(C)c2n1 [compound 1075] | 0.76 µM

Row | Structure (SMILES) | EC50
39 | Cn1nc(C(=O)NC2CCN(CC3CCCCC3)CC2)c2ccc(NC3CCCCCCC3)nc21 [compound 1076] | 0.6 µM
40 | CN(c1ccc2c(C(=O)NC3CCN(CC4CCCCC4)CC3)nn(C)c2n1)C1CCCCCC1 [compound 1077] | 1.6 µM
41 | Cn1nc(C(=O)NC2CCNCC2)c2ccc(OCc3ccccc3-c3cccnc3)nc21 [compound 1085] | 2.2 µM
42 | Cn1nc(C(=O)NC2CCNCC2)c2ccc(OCc3ccccc3-c3cccc(Cl)c3)nc21 [compound 1088] | 1.4 µM
43 | Cn1nc(-c2c[nH]c(C3CCNCC3)n2)c2ccc(N3CCCCCC3)nc21 [compound 1094] | 6.5 µM
44 | Cn1nc(-c2c[nH]c(C3CCCNC3)n2)c2ccc(N3CCCCCC3)nc21 (stereo not shown) [compound 1095] | 3.8 µM
45 | Cn1nc(-c2coc(CC3CCNCC3)n2)c2ccc(N3CCCCCC3)nc21 [compound 1096] | 2.8 µM
46 | Cn1nc(-c2cnc(C(=O)NCC3CCNCC3)s2)c2ccc(N3CCCCCC3)nc21 [compound 1097] | 3.4 µM
47 | Cn1nc(C(=O)NC2CCNCC2)c2ccc(OCc3ccccc3-c3ccco3)nc21 [compound 1100] | 1.4 µM
48 | Cn1nc(C(=O)NC2CCNCC2)c2ccc(OCc3ccccc3-c3cccs3)nc21 [compound 1101] | 0.8 µM
49 | Cn1nc(C(=O)NC2CCNCC2)c2ccc(OCc3ccccc3-c3ccc(Cl)cc3)nc21 [compound 1102] | 0.62 µM
50 | C=CCCCCCCN1CCC(NC(=O)c2nn(C)c3nc(N4CCCCCC4)ccc23)CC1 [compound 1103] | 0.3 µM
51 | C=CCCCn1nc(C(=O)NC2CCN(CC=C)CC2)c2ccc(N3CCCCCC3)nc21 [compound 1104] | 2.2 µM
52 | C=CCCCCn1nc(C(=O)NC2CCN(CC=C)CC2)c2ccc(N3CCCCCC3)nc21 [compound 1105] | 7.5 µM
53 | C=CCCCCCn1nc(C(=O)NC2CCN(CC=C)CC2)c2ccc(N3CCCCCC3)nc21 [compound 1106] | 8.1 µM
54 | COc1cncc(-c2ccccc2COc2ccc3c(C(=O)NC4CCNCC4)nn(C)c3n2)c1 [compound 1119] | 1.5 µM
55 | Cn1nc(-c2nnc(C3CCNCC3)o2)c2ccc(N3CCCCCC3)nc21 [compound 1125] | 0.84 µM
56 | Cn1cc(-c2nn(C)c3nc(N4CCCCCC4)ccc23)nc1CC1CCNCC1 [compound 1126] | 7.7 µM
57 | Cn1nc(-c2cnc(C(=O)NC3CCNCC3)s2)c2ccc(N3CCCCCC3)nc21 [compound 1127] | 2.9 µM

Same assay, conditions: Table 1; Huh7 HCV 1b replicon, luciferase reporter, 48 hours; read-out: 1b EC50

Row | Structure (SMILES) | EC50
58 | CCC(CC)Oc1ccc2c(NC(=O)c3ccc(C)s3)nn(C)c2n1 [compound 956] | 21 µM
59 | CCC(CC)Oc1ccc2c(NC(=O)c3ccc(C)s3)nn(C)c2n1 [compound 963] | 2.7 µM
60 | Cc1ccc(CN2CCC(NC(=O)c3nn(C)c4nc(N5CCCCCC5)ccc34)CC2)cc1 [compound 1039] | 2.6 µM
61 | Cc1ccc(CN2CCC(NC(=O)c3nn(C)c4nc(N5CCCCCC5)ccc34)CC2)cc1 [compound 1045] | 1.1 µM
